≈ marks a conversion by molar mass, not a printed value.

The first assay has as its system C. albicans. Briefly: Minimum Inhibitory Concentration (MIC), CLSI M27-A2. Format: cell-based. Particulars: Candida albicans, 48 h, about 50% growth reduction, approximately 48 h at 35 °C, read-out: Candida MIC. As for the experimental part:
A. Minimum Inhibitory Concentration (MIC) Compounds were assessed for their ability to inhibit the growth of common strains of fungus, C. albicans using a standardized procedure (CLSI M27-A2). Stock solutions of the test compounds and standards were prepared in DMSO at 1,600 μg/mL (C. albicans). Eleven, serial, one-half dilutions of compounds were prepared in 96-well plates in RPMI+MOPS. The assay concentration ranges were 8-0.001 μg/mL (C. albicans). Cell suspensions of C. albicans were prepared and added to each well at concentrations of approximately 3.7×10^3 colony-forming-units per milliliter (cfu/mL). All testing was in duplicate. The inoculated plates were incubated for approximately 48 h at 35±1° C. At the completion of incubation the wells of each plate were evaluated visually for the presence of fungal growth. […] For QC purposes C. krusei isolate ATCC 6258 (4.0×10^3 cfu/mL) was included in the VOR assay.
On to `N#Cc1ccc(-c2ccc(C(F)(F)C(O)(Cn3cnnn3)c3ccc(F)cc3F)nc2)cc1` (centres unmarked) [Example 1, 4-(6-(2-(2,4-Difluorophenyl)-1,1-difluoro-2-hydroxy-3-(1H-tetrazol-1-yl)propyl)pyridin-3-yl)benzonitrile], for which the MIC was not above 0.016 µg/mL.

The same assay, now with this note: Candida albicans, rating scale, read-out: Candida MIC Rating.
On to `N#Cc1ccc(-c2ccc(C(F)(F)C(O)(Cn3cnnn3)c3ccc(F)cc3F)nc2)cc1` (centres unmarked) [Example 1, 4-(6-(2-(2,4-Difluorophenyl)-1,1-difluoro-2-hydroxy-3-(1H-tetrazol-1-yl)propyl)pyridin-3-yl)benzonitrile], for which the minimum inhibitory concentration (MIC) was less than 0.5 µg/mL.

As for `N#Cc1cccc(-c2ccc(C(F)(F)C(O)(Cn3cnnn3)c3ccc(F)cc3F)nc2)c1` (centres unmarked) [Example 3, 3-(6-(2-(2,4-Difluorophenyl)-1,1-difluoro-2-hydroxy-3-(1H-tetrazol-1-yl)propyl)pyridin-3-yl)benzonitrile], the minimal inhibitory concentration (MIC) was less than 0.5 µg/mL.

As to `CC(C)Oc1ccc(-c2ccc(C(F)(F)C(O)(Cn3cnnn3)c3ccc(F)cc3F)nc2)cc1` (centres unmarked) [Example 4, 2-(2,4-Difluorophenyl)-1,1-difluoro-1-(5-(4-isopropoxyphenyl)pyridin-2-yl)-3-(1H-tetrazol-1-yl)propan-2-ol], the MIC is less than 0.5 µg/mL.

For the molecule `OC(Cn1cnnn1)(c1ccc(F)cc1F)C(F)(F)c1ccc(-c2ccc(F)cc2)cn1` (centres unmarked) [Example 5, 2-(2,4-Difluorophenyl)-1,1-difluoro-1-(5-(4-fluorophenyl)pyridin-2-yl)-3-(1H-tetrazol-1-yl)propan-2-ol], the MIC is less than 0.5 µg/mL.

For `OC(Cn1cnnn1)(c1ccc(F)cc1F)C(F)(F)c1ccc(-c2cccc(OC(F)(F)F)c2)cn1` (centres unmarked) [Example 6, 2-(2,4-Difluorophenyl)-1,1-difluoro-3-(1H-tetrazol-1-yl)-1-(5-(3-(trifluoromethoxy)phenyl)pyridin-2-yl)propan-2-ol], the MIC is less than 0.5 µg/mL.

On to `OC(Cn1cnnn1)(c1ccc(F)cc1F)C(F)(F)c1ccc(-c2ccc(OC(F)(F)F)cc2)cn1` (centres unmarked) [Example 7, 2-(2,4-Difluorophenyl)-1,1-difluoro-3-(1H-tetrazol-1-yl)-1-(5-(4-(trifluoromethoxy)phenyl)pyridin-2-yl) propan-2-ol], for which the minimum inhibitory concentration (MIC) is less than 0.5 µg/mL.

Consider `OC(Cn1cnnn1)(c1ccc(F)cc1F)C(F)(F)c1ccc(-c2cccc(Cl)c2)cn1` (centres unmarked) [Example 8, 1-(5-(3-Chlorophenyl)pyridin-2-yl)-2-(2,4-difluorophenyl)-1,1-difluoro-3-(1H-tetrazol-1-yl)propan-2-ol], for which the minimum inhibitory concentration (MIC) was less than 0.5 µg/mL.

Regarding `OC(Cn1cnnn1)(c1ccc(F)cc1F)C(F)(F)c1ccc(-c2ccc(Cl)cc2)cn1` (centres unmarked) [Example 9, 1-(5-(4-Chlorophenyl)pyridin-2-yl)-2-(2,4-difluorophenyl)-1,1-difluoro-3-(1H-tetrazol-1-yl)propan-2-ol], the MIC was less than 0.5 µg/mL.

For the molecule `OC(Cn1cnnn1)(c1ccc(F)cc1F)C(F)(F)c1ccc(-c2cc(F)ccc2F)cn1` (centres unmarked) [Example 10, 2-(2,4-Difluorophenyl)-1-(5-(2,5-difluorophenyl)pyridin-2-yl)-1,1-difluoro-3-(1H-tetrazol-1-yl)propan-2-ol], the MIC was less than 0.5 µg/mL.

As to `OC(Cn1cncn1)(c1ccc(F)cc1F)C(F)(F)c1ccc(-c2ccc(F)cc2)cn1` (centres unmarked) [Example 16, 2-(2,4-Difluorophenyl)-1,1-difluoro-1-(5-(4-fluorophenyl)pyridin-2-yl)-3-(1H-1,2,4-triazol-1-yl)propan-2-ol], the MIC was less than 0.5 µg/mL.

Consider `OC(Cn1cncn1)(c1ccc(F)cc1F)C(F)(F)c1ccc(-c2ccc(OC(F)(F)F)cc2)cn1` (centres unmarked) [Example 18, 2-(2,4-Difluorophenyl)-1,1-difluoro-3-(1H-1,2,4-triazol-1-yl)-1-(5-(4-(trifluoromethoxy)phenyl)pyridin-2-yl) propan-2-ol], for which the MIC was less than 0.5 µg/mL.

Regarding `OC(Cn1ncnn1)(c1ccc(F)cc1F)C(F)(F)c1ccc(-c2ccc(OCC(F)(F)F)cc2)cn1` (centres unmarked) [Example 20, 2-(2,4-Difluorophenyl)-1,1-difluoro-3-(2H-tetrazol-1-yl)-1-(5-(4-(2,2,2-trifluoroethoxy)phenyl)pyridin-2-yl)propan-2-ol], the minimal inhibitory concentration (MIC) was more than 4 µg/mL.

As to `OC(Cn1ncnn1)(c1ccc(F)cc1F)C(F)(F)c1ccc(-c2cccc(F)c2)cn1` (centres unmarked) [Example 21], the MIC fell in the range of 1.5 to 4 µg/mL (≈ 3.35 to 8.94 µM).

`OC(Cn1ncnn1)(c1ccc(F)cc1F)C(F)(F)c1ccc(-c2ccc(C(F)(F)F)cc2)cn1` (centres unmarked) [Example 22]: the MIC was in the range of 1.5 to 4 µg/mL (≈ 3.02 to 8.04 µM).

`Oc1ccc(-c2ccc(C(F)(F)C(O)(Cn3cnnn3)c3ccc(F)cc3F)nc2)cc1` (centres unmarked) [Example 23, 4-(6-(2-(2,4-Difluorophenyl)-1,1-difluoro-2-hydroxy-3-(1H-tetrazol-1-yl)propyl)pyridin-3-yl)phenol]: the MIC is less than 0.5 µg/mL.

Turning to `CC(C)c1cccc(-c2ccc(C(F)(F)C(O)(Cn3cnnn3)c3ccc(F)cc3F)nc2)c1` (centres unmarked) [Example 24, 2-(2,4-Difluorophenyl)-1,1-difluoro-1-(5-(3-isopropylphenyl)pyridin-2-yl)-3-(1H-tetrazol-1-yl)propan-2-ol], the MIC was less than 0.5 µg/mL.

`OC(Cn1cnnn1)(c1ccc(F)cc1F)C(F)(F)c1ccc(-c2ccc(F)c(F)c2)cn1` (centres unmarked) [Example 25, 2-(2,4-Difluorophenyl)-1-(5-(3,4-difluorophenyl)pyridin-2-yl)-1,1-difluoro-3-(1H-tetrazol-1-yl)propan-2-ol]: the minimum inhibitory concentration (MIC) was less than 0.5 µg/mL.

Consider `OC(Cn1cnnn1)(c1ccc(F)cc1F)C(F)(F)c1ccc(-c2cccc(OC(F)F)c2)cn1` (centres unmarked) [Example 26, 1-(5-(3-(Difluoromethoxy)phenyl)pyridin-2-yl)-2-(2,4-difluorophenyl)-1,1-difluoro-3-(1H-tetrazol-1-yl)propan-2-ol], for which the MIC was less than 0.5 µg/mL.

Regarding `OC(Cn1cnnn1)(c1ccc(F)cc1F)C(F)(F)c1ccc(-c2ccc(SC(F)(F)F)cc2)cn1` (centres unmarked) [Example 27, 2-(2,4-Difluorophenyl)-1,1-difluoro-3-(1H-tetrazol-1-yl)-1-(5-(4-((trifluoromethyl)thio)phenyl)pyridin-2-yl)propan-2-ol], the minimum inhibitory concentration (MIC) is less than 0.5 µg/mL.

Consider `CC(C)(C)Oc1ccc(-c2ccc(C(F)(F)C(O)(Cn3cnnn3)c3ccc(F)cc3F)nc2)cc1` (centres unmarked) [Example 28, 1-(5-(4-(tert-Butoxy)phenyl)pyridin-2-yl)-2-(2,4-difluorophenyl)-1,1-difluoro-3-(1H-tetrazol-1-yl)propan-2-ol], for which the MIC is less than 0.5 µg/mL.

`OC(Cn1cnnn1)(c1ccc(F)cc1F)C(F)(F)c1ccc(-c2ccc(Cl)c(F)c2)cn1` (centres unmarked) [Example 29, 1-(5-(4-Chloro-3-fluorophenyl)pyridin-2-yl)-2-(2,4-difluorophenyl)-1,1-difluoro-3-(1H-tetrazol-1-yl)propan-2-ol]: the minimum inhibitory concentration (MIC) is less than 0.5 µg/mL.

For `Oc1cccc(-c2ccc(C(F)(F)C(O)(Cn3cnnn3)c3ccc(F)cc3F)nc2)c1` (centres unmarked) [Example 30, 3-(6-(2-(2,4-Difluorophenyl)-1,1-difluoro-2-hydroxy-3-(1H-tetrazol-1-yl)propyl)pyridin-3-yl)phenol], the minimal inhibitory concentration (MIC) was less than 0.5 µg/mL.

As for `OC(Cn1cnnn1)(c1ccc(F)cc1F)C(F)(F)c1ccc(-c2cccc(C(F)(F)F)c2)cn1` (centres unmarked) [Example 31, 2-(2,4-Difluorophenyl)-1,1-difluoro-3-(1H-tetrazol-1-yl)-1-(5-(3-(trifluoromethyl)phenyl)pyridin-2-yl)propan-2-ol], the minimal inhibitory concentration (MIC) is less than 0.5 µg/mL.

`O=[N+]([O-])c1ccc(-c2ccc(C(F)(F)C(O)(Cn3cnnn3)c3ccc(F)cc3F)nc2)cc1` (centres unmarked) [Example 32, 2-(2,4-Difluorophenyl)-1,1-difluoro-1-(5-(4-nitrophenyl)pyridin-2-yl)-3-(1H-tetrazol-1-yl)propan-2-ol]: the MIC is less than 0.5 µg/mL.

`O=C(c1ccc(-c2ccc(C(F)(F)C(O)(Cn3cnnn3)c3ccc(F)cc3F)nc2)cc1)C(F)(F)F` (centres unmarked) [Example 33, 1-(4-(6-(2-(2,4-Difluorophenyl)-1,1-difluoro-2-hydroxy-3-(1H-tetrazol-1-yl)propyl)pyridin-3-yl)phenyl)-2,2,2-trifluoroethanone]: the MIC was less than 0.5 µg/mL.

In the case of `OC(Cn1cnnn1)(c1ccc(Cl)cc1F)C(F)(F)c1ccc(-c2ccc(OC(F)(F)F)cc2)cn1` (centres unmarked) [Example 34, 2-(4-Chloro-2-fluorophenyl)-1,1-difluoro-3-(1H-tetrazol-1-yl)-1-(5-(4-(trifluoromethoxy)phenyl)pyridin-2-yl)propan-2-ol], the minimal inhibitory concentration (MIC) is less than 0.5 µg/mL.

Regarding `OC(Cn1cnnn1)(c1ccc(F)cc1F)C(F)(F)c1ccc(-c2ccccc2)cn1` (centres unmarked) [Example 35, 2-(2,4-Difluorophenyl)-1,1-difluoro-1-(5-phenylpyridin-2-yl)-3-(1H-tetrazol-1-yl)propan-2-ol], the MIC is less than 0.5 µg/mL.

Take `OC(Cn1cnnn1)(c1ccc(F)cc1F)C(F)(F)c1ccc(-c2ccc(N3CCOCC3)cc2)cn1` (centres unmarked) [Example 36, 2-(2,4-Difluorophenyl)-1,1-difluoro-1-(5-(4-morpholinophenyl)pyridin-2-yl)-3-(1H-tetrazol-1-yl)propan-2-ol]: the minimum inhibitory concentration (MIC) was less than 0.5 µg/mL.

The assay is the same for the next values; noted with them: Candida albicans, read-out: Candida MIC Rating.
As for `OC(Cn1cnnn1)(c1ccc(F)cc1F)C(F)(F)c1ccc(-c2ccc(OCC(F)(F)C(F)(F)F)cc2)cn1` (centres unmarked) [Example 12, 2-(2,4-Difluorophenyl)-1,1-difluoro-1-(5-(4-(2,2,3,3,3-pentafluoropropoxy)phenyl)pyridin-2-yl)-3-(1H-tetrazol-1-yl)propan-2-ol], the MIC was less than 0.5 µg/mL.

Consider `OC(Cc1cc[nH]n1)(c1ccc(F)cc1F)C(F)(F)c1ccc(-c2ccc(OC(F)(F)F)cc2)cn1` (centres unmarked) [Example 15, 2-(2,4-Difluorophenyl)-1,1-difluoro-3-(1H-pyrazol-3-yl)-1-(5-(4-(trifluoromethoxy)phenyl)pyridin-2-yl)propan-2-ol], for which the MIC was less than 0.5 µg/mL.

The assay is the same for the next values; noted with them: rating scale.
Take `OC(Cn1cnnn1)(c1ccc(F)cc1F)C(F)(F)c1ccc(-c2ccc(OCC(F)(F)F)cc2)cn1` (centres unmarked) [Example 11, 2-(2,4-Difluorophenyl)-1,1-difluoro-3-(1H-tetrazol-1-yl)-1-(5-(4-(2,2,2-trifluoroethoxy)phenyl)pyridin-2-yl)propan-2-ol]: the “Candida MIC Rating” value was “A (≤0.5)”.

As usually defined, the MIC is the lowest concentration found to suppress growth.

Source of the values: patent US10221160B2, “Metalloenzyme inhibitor compounds” (Mycovia Pharmaceuticals, Inc., priority 2012, dated 2019).
